Data: patent US20220259202A1, “1-(4-(AMINOMETHYL)BENZYL)-2-BUTYL-2H-PYRAZOLO[3,4-C]QUINOLIN-4-AMINE DERIVATIVES AND RELATED COMPOUNDS AS TOLL-LIKE RECEPTOR (TLR) 7/8 AGONISTS, AS WELL AS ANTIBODY DRUG CONJUGATES THEREOF FOR USE IN CANCER THERAPY AND DIAGNOSIS” (SUTRO BIOPHARMA, INC., priority 2019, published 2022)

How the values were obtained:
[1] = target: T1, mouse TLR7 (Mus musculus, UniProt P58681); assay: HEK293 SEAP reporter assay, mouse TLR7 (Biological Example 1); type: cell-based; conditions: HEK293-mouseTLR7 reporter cells, 4 hrs; read-out: mTLR7 EC50
T1 construct: host or cells: HEK293
T1 sequence (P58681 27-1050): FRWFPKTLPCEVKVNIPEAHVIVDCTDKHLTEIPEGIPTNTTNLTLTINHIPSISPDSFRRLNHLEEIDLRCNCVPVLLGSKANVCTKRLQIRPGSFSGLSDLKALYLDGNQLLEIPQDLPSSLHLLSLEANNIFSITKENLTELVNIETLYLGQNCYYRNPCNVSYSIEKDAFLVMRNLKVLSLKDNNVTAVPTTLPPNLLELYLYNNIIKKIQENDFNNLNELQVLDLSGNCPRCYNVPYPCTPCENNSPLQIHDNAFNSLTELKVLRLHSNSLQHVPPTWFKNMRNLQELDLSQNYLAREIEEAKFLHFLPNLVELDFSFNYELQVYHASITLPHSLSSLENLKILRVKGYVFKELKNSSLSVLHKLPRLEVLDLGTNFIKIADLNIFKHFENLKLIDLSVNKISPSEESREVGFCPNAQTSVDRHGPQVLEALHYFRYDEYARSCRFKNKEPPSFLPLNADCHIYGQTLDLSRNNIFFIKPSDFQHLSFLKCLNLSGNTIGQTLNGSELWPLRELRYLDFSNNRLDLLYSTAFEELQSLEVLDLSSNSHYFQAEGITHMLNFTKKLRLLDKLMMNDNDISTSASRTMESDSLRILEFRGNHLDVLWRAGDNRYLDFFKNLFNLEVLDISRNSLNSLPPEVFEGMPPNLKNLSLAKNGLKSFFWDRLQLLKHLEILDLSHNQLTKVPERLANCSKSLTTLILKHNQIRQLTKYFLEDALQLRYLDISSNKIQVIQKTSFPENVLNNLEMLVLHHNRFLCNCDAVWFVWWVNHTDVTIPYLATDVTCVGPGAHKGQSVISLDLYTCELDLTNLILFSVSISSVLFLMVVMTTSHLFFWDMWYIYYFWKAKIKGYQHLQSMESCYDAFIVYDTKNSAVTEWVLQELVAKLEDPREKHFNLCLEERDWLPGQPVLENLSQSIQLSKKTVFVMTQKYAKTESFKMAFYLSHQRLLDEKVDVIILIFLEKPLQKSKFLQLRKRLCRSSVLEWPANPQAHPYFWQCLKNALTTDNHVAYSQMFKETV
Description: (§1) In this example, the activity of the TLR7 agonists to activate human TLR7, hTLR7 (or human TLR8, hTLR8, or mouse TLR7, mTLR7) pathway was evaluated on HEK293 reporter cells transfected with human TLR7 (or mouse TLR7 or human TLR8) and an inducible SEAP (secreted embryonic alkaline phosphatase) reporter gene. The SEAP reporter gene is placed under the control of the IFN-β minimal promoter fused to five NF-κB and AP-1-binding sites. Stimulation with a TLR7 agonist activates NF-KB and AP-1 which induces the production of SEAP. Levels of SEAP was determined with HEK-Blue Detection medium.
(§2) HEK293-humanTLR7, HEK293-mouseTLR7 and HEK293-humanTLR8 reporter cell lines were purchased from Invivogen and cell lines were maintained in manufacture recommended culture medium with required supplemental antibiotics. On the day of assay, the cells were harvested with Accutase and counted by the Vi-CELL Cell Viability Analyzers. Cells were re-suspended in HEK blue detection medium and a total of 10000 cells were seeded in each well of a 384-well flat bottom plate. Serial dilutions of TLR7 agonists free drugs (1:3 serial dilution starting from 5 μM) was added into treatment wells. Assay plates were cultured at 37° C. in a CO2 incubator for […]. HEK-Blue™ Detection medium changes to a purple/blue color in the presence of secreted SEAP, which can be detected by spectrophotometry at 620-655 nm. […]

[2] = target: T2, human TLR7 (Homo sapiens, UniProt Q9NYK1); assay: HEK293 SEAP reporter assay, human TLR7 (Biological Example 1); type: cell-based; conditions: HEK293-humanTLR7 reporter cells, 4 hrs; read-out: hTLR7 EC50
T2 construct: host or cells: HEK293
T2 sequence (Q9NYK1 27-1049): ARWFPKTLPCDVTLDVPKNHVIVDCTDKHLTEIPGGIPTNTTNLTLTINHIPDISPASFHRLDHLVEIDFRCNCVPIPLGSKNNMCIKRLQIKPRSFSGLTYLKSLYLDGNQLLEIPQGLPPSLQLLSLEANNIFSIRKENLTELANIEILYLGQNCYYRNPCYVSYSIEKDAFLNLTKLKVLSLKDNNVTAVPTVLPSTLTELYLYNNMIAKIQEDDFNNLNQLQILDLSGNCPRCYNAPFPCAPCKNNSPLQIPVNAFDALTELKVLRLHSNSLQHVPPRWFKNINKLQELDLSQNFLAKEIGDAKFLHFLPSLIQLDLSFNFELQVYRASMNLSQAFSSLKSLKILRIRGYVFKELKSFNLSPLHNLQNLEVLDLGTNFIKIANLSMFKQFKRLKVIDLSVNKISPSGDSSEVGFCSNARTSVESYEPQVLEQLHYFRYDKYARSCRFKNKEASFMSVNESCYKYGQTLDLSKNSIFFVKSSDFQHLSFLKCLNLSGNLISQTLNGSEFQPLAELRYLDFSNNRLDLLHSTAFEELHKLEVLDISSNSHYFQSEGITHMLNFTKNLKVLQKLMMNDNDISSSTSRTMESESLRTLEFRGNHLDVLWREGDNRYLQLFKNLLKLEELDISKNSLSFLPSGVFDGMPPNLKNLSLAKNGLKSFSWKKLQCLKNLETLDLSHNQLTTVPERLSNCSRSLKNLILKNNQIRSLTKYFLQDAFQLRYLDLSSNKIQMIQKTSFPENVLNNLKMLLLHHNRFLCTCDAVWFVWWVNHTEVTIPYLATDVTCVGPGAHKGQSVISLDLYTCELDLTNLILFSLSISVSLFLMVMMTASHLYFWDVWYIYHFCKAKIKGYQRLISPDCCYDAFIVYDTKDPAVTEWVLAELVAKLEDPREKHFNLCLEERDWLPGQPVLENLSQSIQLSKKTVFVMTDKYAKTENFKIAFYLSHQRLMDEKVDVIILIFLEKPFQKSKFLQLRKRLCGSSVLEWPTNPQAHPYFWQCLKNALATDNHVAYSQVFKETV
Description: as §1, §2

## CCCCn1nc2c(N)nc3ccccc3c2c1Cc1ccc(CN)cc1 [Compound 1, 1-(4-(aminomethyl)benzyl)-2-butyl-2H-pyrazolo[3,4-c]quinolin-4-amine]
[1]
  EC50: 29.1 nM
[2]
  EC50: 46.7 nM
